What was measured:
Format in all cases: biochemical
KDR tyrosine kinase = biological target: T1, KDR tyrosine kinase (Homo sapiens, UniProt P35968); experiment: In vitro enzyme assay (ELISA), Test (a), KDR; settings: ATP 8 μM, read-out: IC50 versus KDR tyrosine kinase
T1 construct: a DNA fragment encoding most of the cytoplasmic domain, commencing with methionine 806 and including the termination codon; made in house; host or cells: Sf9 insect cells (recombinant baculovirus)
Procedure: (§1) The ability of test compounds to inhibit the phosphorylation of a tyrosine containing polypeptide substrate by the tyrosine kinase enzymes PDGFRα, PDGFRβ and KDR was assessed using conventional ELISA assays. DNA encoding the PDGFRα, PDGFRβ or KDR receptor cytoplasmic domains may be obtained by total gene synthesis (International Biotechnology Lab., 1987, 5(3), 19-25) or by cloning. The DNA fragments may be expressed in a suitable expression system to obtain polypeptide with tyrosine kinase activity. For example, PDGFRα, PDGFRβ and KDR receptor cytoplasmic domains, obtained by expression of recombinant protein in insect cells, can be shown to display intrinsic tyrosine kinase activity. In the case of the VEGF receptor KDR (Genbank Accession No. L04947), a DNA fragment encoding most of the cytoplasmic domain, commencing with methionine 806 and including the termination codon may be cloned into a baculovirus transplacement vector [for example pAcYM1 (see The Baculovirus Expression System: A Laboratory Guide, L. A. King and R. D. Possee, Chapman and Hall, 1992) or pAc360 or pBlueBacHis (available from Invitrogen Corporation)]. This recombinant construct may be co-transfected into insect cells [for example Spodoptera frugiperda 21(Sf21) or Spodoptera frugiperda 9(Sf9)] with viral DNA (for example Pharmingen BaculoGold) to prepare recombinant baculovirus. Details of the methods for the assembly of recombinant DNA molecules and the preparation and use of recombinant baculovirus can be found in standard texts, for example Sambrook et al., 1989, Molecular cloning—A Laboratory Manual, 2nd edition, Cold Spring Harbour Laboratory Press and O'Reilly et al., 1992, Baculovirus Expression Vectors—A Laboratory Manual, W. H. Freeman and Co, New York).
For expression, Sf9 cells were infected with plaque-pure KDR recombinant virus and harvested 48 hours later. […]

PDGFRβ tyrosine kinase = biological target: T2, PDGFRβ tyrosine kinase (Homo sapiens, UniProt P09619); experiment: In vitro enzyme assay (ELISA), Test (a), PDGFRβ; settings: ATP 2.8 μM, read-out: IC50 versus PDGFRβ tyrosine kinase
T2 construct: PDGFRα, PDGFRβ and KDR receptor cytoplasmic domains, obtained by expression of recombinant protein in insect cells; purchased Upstate Biotechnology Inc. 14-463; host or cells: Sf9 insect cells
T2 sequence (P09619 554-1106 limits assumed): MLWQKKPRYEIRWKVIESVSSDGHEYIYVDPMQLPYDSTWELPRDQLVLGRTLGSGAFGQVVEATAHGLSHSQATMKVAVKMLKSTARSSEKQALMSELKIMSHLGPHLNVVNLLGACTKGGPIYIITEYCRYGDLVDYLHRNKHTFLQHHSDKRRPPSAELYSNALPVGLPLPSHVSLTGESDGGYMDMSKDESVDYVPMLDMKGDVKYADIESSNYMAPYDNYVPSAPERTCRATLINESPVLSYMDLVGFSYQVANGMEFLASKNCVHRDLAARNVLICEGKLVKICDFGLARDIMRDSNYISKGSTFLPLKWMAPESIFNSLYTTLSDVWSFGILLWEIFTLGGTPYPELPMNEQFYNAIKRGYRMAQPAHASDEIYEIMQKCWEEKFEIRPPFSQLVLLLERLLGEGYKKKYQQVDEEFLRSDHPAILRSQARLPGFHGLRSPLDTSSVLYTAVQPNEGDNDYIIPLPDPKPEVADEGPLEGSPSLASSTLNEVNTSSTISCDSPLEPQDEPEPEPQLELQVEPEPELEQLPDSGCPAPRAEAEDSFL
Procedure: as §1, with “Details of the methods for the assembly of recombinant DNA molecules and the preparation and use of recombinant baculovirus can be found in standard texts, for example Sambrook et al., 1989, Molecular cloning—A Laboratory Manual, 2nd edition, Cold Spring Harbour Laboratory Press and O'Reilly et al., 1992, Baculovirus Expression Vectors—A Laboratory Manual, W. H. Freeman and Co, New York).” left out

PDGFRα tyrosine kinase = biological target: T3, PDGFRα tyrosine kinase (Homo sapiens, UniProt P16234); experiment: In vitro enzyme assay (ELISA), Test (a), PDGFRα; settings: ATP 14 μM, read-out: IC50 versus PDGFRα tyrosine kinase
T3 construct: PDGFRα, PDGFRβ and KDR receptor cytoplasmic domains, obtained by expression of recombinant protein in insect cells; purchased Upstate Biotechnology Inc. 14-467; host or cells: Sf9 insect cells
T3 sequence (P16234 550-1089 limits assumed): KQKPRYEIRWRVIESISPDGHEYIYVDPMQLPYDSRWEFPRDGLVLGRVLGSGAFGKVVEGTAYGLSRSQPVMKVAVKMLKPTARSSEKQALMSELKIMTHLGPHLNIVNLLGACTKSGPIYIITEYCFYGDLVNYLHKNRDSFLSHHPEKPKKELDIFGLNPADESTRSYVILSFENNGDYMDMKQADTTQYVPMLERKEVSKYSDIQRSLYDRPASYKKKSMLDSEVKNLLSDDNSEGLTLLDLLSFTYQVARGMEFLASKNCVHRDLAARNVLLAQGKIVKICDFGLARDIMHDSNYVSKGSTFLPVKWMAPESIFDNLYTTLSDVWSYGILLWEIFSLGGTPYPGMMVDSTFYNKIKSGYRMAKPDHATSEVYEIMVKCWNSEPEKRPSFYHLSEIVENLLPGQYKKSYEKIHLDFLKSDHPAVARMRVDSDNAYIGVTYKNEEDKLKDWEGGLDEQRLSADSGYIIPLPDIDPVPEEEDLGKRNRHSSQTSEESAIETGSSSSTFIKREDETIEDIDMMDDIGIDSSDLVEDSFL
Procedure: as §1, with “Details of the methods for the assembly of recombinant DNA molecules and the preparation and use of recombinant baculovirus can be found in standard texts, for example Sambrook et al., 1989, Molecular cloning—A Laboratory Manual, 2nd edition, Cold Spring Harbour Laboratory Press and O'Reilly et al., 1992, Baculovirus Expression Vectors—A Laboratory Manual, W. H. Freeman and Co, New York).” left out

T1 sequence (P35968 786-1356 limits assumed): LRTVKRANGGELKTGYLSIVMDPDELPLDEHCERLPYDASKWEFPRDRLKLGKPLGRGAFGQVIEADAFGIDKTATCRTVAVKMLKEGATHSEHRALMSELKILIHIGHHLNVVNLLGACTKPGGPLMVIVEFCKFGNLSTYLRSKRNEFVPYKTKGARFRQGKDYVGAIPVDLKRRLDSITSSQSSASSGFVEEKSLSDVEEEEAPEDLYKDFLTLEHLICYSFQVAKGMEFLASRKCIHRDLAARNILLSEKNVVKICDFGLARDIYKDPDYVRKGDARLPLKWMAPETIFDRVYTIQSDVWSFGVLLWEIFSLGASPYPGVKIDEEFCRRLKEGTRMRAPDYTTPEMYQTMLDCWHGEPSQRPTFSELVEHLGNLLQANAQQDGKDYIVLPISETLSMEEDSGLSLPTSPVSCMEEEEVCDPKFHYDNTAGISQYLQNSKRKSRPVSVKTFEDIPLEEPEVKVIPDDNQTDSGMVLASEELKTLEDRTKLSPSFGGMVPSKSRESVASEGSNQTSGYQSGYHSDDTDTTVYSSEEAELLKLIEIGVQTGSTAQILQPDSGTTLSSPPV

- IC50 (KDR tyrosine kinase): ~1 nM
- IC50 (PDGFRβ tyrosine kinase): ~10 nM
- IC50 (PDGFRα tyrosine kinase): ~100 nM
SMILES: COc1cc2ncnc(Oc3cnn(CC(=O)Nc4cccc5c4OCO5)c3)c2cc1OC [Example 2, N-(2,3-methylenedioxyphenyl)-2-[4-(6,7-dimethoxyquinazolin-4-yloxy)pyrazol-1-yl]acetamide]

Source: patent US20090036474A1, “Quinazoline derivatives for use against cancer” (priority 2004, published 2009)
